Laboratory results published in US12459951B2, “Compounds that interact with RAS superfamily proteins for treatment of cancers, inflammatory diseases, rasopathies, and fibrotic disease” (SHY Therapeutics, LLC, priority 2022, dated 2025).

Columns and labels:
[1] = system: Smad2/Smad3 phosphorylation; experiment: Phospho-Smad2/3 Inhibition Assay (western blot), Panc-1; assay type: cell-based, human; conditions: at 10 μM, Panc-1 pancreatic cancer cell line; starred symbols = activation
In short: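 Panc-1 cells (KRas G12D), starved overnight in 0.5% FBS, treated 3 h at 37° C with compound at 10 μM final (0.3% DMSO) or serial dilutions for IC50, then stimulated with 10 ng/ml TGF-b1 for 1 h. Phospho-Smad2 (Ser465/467) and phospho-Smad3 (Ser423/425) detected by western blot.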

IL6 = experiment: IL-6 Quantification Assay (ELISA), LPS-stimulated RAW 264.7; assay type: cell-based; parameters: inhibition: dose or concentration left out as unconfirmed; conditions: Mus musculus, RAW264.7; read-out: IL-6: % inh.
TNF-alpha = TNF-alpha Quantification Assay (ELISA), LPS-stimulated RAW 264.7; assay type: cell-based; conditions: Mus musculus, RAW264.7; at 10 μM; read-out: TNFα: % inh.
[2] = system: MiaPaca-2 (expressing KRAS G12C mutant); experiment: Proliferation Assay (Cell Viability Assay); assay type: cell-based; conditions: Homo sapiens, MIA PaCa-2; read-out: Proliferation in MiaPaca-2: IC50
In short: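 MiaPaca-2 cells (KRAS G12C) were grown in DMEM-high glucose with 10% FBS, seeded at 2000–5000 cells/well and cultured overnight. Compounds were added at 10 μM final, or as serial dilutions for IC50, in 0.3% DMSO/10% FBS for 2–4 days at 37 °C, 5% CO2. Viability was measured with CellTiter 96 Aqueous One and % inhibition calculated.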

IC50 [2] [µM] | Compound | % inh of Smad2/3 phosphorylation in Panc-1 [1] | inhibition (IL6) [%] | inhibition at 10 µM (TNF-alpha) [%]
< 0.15 | Cc1c(-c2ccn(C)n2)cn2nc(-c3nccn3C)nc(Nc3cc(-n4ccnc4)ccn3)c12 [Compound 245, N-(4-(1H-imidazol-1-yl)pyridin-2-yl)-5-methyl-2-(1-methyl-1H-imidazol-2-yl)-6-(1-methyl-1H-pyrazol-3-yl)pyrrolo[2,1-f][1,2,4]triazin-4-amine] | B* (B* = 26-45% activation) | 25 to 49 | 0
0.51 to 1 | COc1cc(Nc2nc(-c3nccn3C)nn3cc(-c4ccn(C)n4)c(C)c23)nn1C [Compound 253, N-(5-Methoxy-1-methyl-1H-pyrazol-3-yl)-5-methyl-2-(1-methyl-1H-imidazol-2-yl)-6-(1-methyl-1H-pyrazol-3-yl)pyrrolo[2,1-f][1,2,4]triazin-4-amine] | A* (A* = 1-25% activation) | 25 to 49 | 0
> 1 | COc1cccc(Nc2nc(-c3nccn3C)nn3ccc(-c4ccccc4)c23)n1 [Compound 40, N-(6-Methoxypyridin-2-yl)-2-(1-methyl-1H-imidazol-2-yl)-5-phenylpyrrolo[2,1-f][1,2,4]triazin-4-amine] | B (B = 26-45% inhibition) | 75 to 100 | 25 to 49

The remaining lines, values behind:

Compound | IC50 [2] [µM] | % inh of Smad2/3 phosphorylation in Panc-1 [1] | inhibition (IL6) [%] | inhibition at 10 µM (TNF-alpha) [%]
CO[C@H]1CC[C@@H](Nc2nc(-c3nccn3C)nn3cc(-c4ccn(C(C)C)n4)c(C(C)C)c23)C1 (racemic) [Compound 36, rac 5-Isopropyl-6-(1-isopropyl-1H-pyrazol-3-yl)-N-((1R,3S)-3-methoxycyclopentyl)-2-(1-methyl-1H-imidazol-2-yl)pyrrolo[2,1-f][1,2,4]triazin-4-amine] | > 1 | D (D = 76-100% inhibition) | 50 to 74 | 1 to 24
COc1ccc(F)c(-c2cn3nc(-c4nccn4C)nc(N[C@H]4C[C@H](OC)C4)c3c2-c2ccccc2)c1F [Compound 273, 6-(2,6-Difluoro-3-methoxyphenyl)-N-((1r,3r)-3-methoxycyclobutyl)-2-(1-methyl-1H-imidazol-2-yl)-5-phenylpyrrolo[2,1-f][1,2,4]triazin-4-amine] | > 1 | D (D = 76-100% inhibition) | 75 to 100 | 75 to 100
COCCO[C@H]1C[C@H](Nc2nc(-c3nccn3C)nn3cc(-c4cccc(OC)c4F)c(-c4ccccc4)c23)C1 [Compound 44, 6-(2-Fluoro-3-methoxyphenyl)-N-((1r,3r)-3-(2-methoxyethoxy)cyclobutyl)-2-(1-methyl-1H-imidazol-2-yl)-5-phenylpyrrolo[2,1-f][1,2,4]triazin-4-amine] | > 1 | D (D = 76-100% inhibition) | 25 to 49 | 1 to 24
COc1cccc(-c2cn3nc(-c4nccn4C)nc(N[C@H]4C[C@H](OC)C4)c3c2-c2ccccc2)c1F [Compound 42, 6-(2-Fluoro-3-methoxyphenyl)-N-((1r,3r)-3-methoxycyclobutyl)-2-(1-methyl-1H-imidazol-2-yl)-5-phenylpyrrolo[2,1-f][1,2,4]triazin-4-amine] | 0.51 to 1 | 0 (0 = 0% inhibition) | 75 to 100 | 75 to 100
